Experimental data as given in patent US10385080B2, “STAT6 inhibitors” (Board of Regents, The University of Texas System, priority 2013, dated 2019).
Entries after “also recorded” stand apart in the source; their conditions may differ.

Legend:
[1] = Toxicity: weights of mice during challenge with different doses; format: in vivo; settings: highest dose of 50 micrograms
Experimental: (§1) The issue of toxicity was addressed with the newer synthetic STAT6 peptidomimetic agents 86i and 43i in two ways. First, the inventors determined the effect of each inhibitor on asthma-related parameters in fungus-challenged mice. […] Second, the weights of mice were measured during challenge with the different doses of both STAT6 inhibitors.

STAT6 [2] = molecular target: T1, STAT6 (Homo sapiens, UniProt P42226); experiment: Inhibition of IL-4 (and IL-13) stimulated phosphorylation of STAT6 in Beas-2B cells, western blot; format: cell-based; parameters: endogenous in cells; host or cells: Beas-2B immortalized human airway cells; settings: dose response
T1 sequence (P42226 1-847): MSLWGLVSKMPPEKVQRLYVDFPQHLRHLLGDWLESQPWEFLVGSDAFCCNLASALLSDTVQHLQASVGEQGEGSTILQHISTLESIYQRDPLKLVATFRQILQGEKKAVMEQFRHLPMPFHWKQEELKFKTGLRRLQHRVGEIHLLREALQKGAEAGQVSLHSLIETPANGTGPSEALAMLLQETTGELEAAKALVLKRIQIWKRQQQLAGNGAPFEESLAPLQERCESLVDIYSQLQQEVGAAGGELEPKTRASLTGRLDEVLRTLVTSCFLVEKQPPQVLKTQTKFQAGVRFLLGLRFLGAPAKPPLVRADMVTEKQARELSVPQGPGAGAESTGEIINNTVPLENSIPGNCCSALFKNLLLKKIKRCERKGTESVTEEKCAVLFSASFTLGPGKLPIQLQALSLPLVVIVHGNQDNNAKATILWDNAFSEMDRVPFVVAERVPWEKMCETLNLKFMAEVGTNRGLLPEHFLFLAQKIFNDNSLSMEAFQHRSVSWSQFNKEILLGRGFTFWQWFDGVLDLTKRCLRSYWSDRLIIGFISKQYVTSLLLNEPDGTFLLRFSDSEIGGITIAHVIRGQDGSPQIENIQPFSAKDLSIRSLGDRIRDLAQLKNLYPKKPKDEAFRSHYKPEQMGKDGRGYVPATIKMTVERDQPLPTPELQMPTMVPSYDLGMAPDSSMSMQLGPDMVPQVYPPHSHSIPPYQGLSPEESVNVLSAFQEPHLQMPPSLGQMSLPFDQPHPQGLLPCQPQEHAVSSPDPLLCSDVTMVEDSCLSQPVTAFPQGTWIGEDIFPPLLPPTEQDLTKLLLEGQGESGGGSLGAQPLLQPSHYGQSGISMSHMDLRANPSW
Experimental: Compound PM-241H inhibited the phosphorylation of Tyr641 of STAT6 in Beas-2B cells stimulated with IL-4 and IL-13.
(§2) Compounds were screened at 5 μM for their ability to inhibit IL-4 stimulated phosphorylation of STAT6 in Beas-2B immortalized human airway cells. Cells were treated with prodrug for 2 hr and then stimulated with IL-4. After 30 min cells were lysed and pSTAT6 and total STAT6 were measured with western blots (FIG. 7). Without being bound by theory, the inhibition observed is consistent with compounds entering cells, being stripped of the POM groups, binding to the SH2 domain of STAT6, blocking binding to IL-4Rα and preventing phosphorylation of Tyr641. […] Compounds resulting in <10% residual phosphorylation were taken on to MTS cytotoxicity assays and dose response assays. (FIG. 8). The cyclic aromatic amides PM-63I, PM-80I, PM-81I, and PM-86I were very potent with IC50 values from 50-500 nM. […] With the exception of PM-43I, concentrations that inhibit STAT6 phosphorylation are 20-100 fold lower than those resulting in toxicity. STAT6 inhibitors were assayed for their ability to inhibit the phosphorylation of STAT 1, STAT 3, STAT 5, Akt, and FAK, all processes that depend on SH2 domain-phosphotyrosine interactions (Mandal, P. K. et al. 2011). Serum starved MDA-MB-468 breast cancer cells were treated with STAT6 inhibitors for 2 hr and then were stimulated with EGF (See FIGS. 9A and 9B).
(§3) Cells or lungs were isolated and lysed in RIPA buffer (9806S; Cell Signaling, Danvers, Mass.), protein was quantified using BCA Protein Assay Reagent (23227; Thermo Fisher Scientific, Rockford, Ill.) and denatured in Laemmli sample buffer (161-0737; Bio-Rad, Hercules, Calif.) according to manufacturer's protocol. Proteins were separated on SDS-Page gels were hand-poured using a standard electrophoresis unit (Bio-Rad, Hecules, Calif.) and transferred to a membrane using iBlot Gel Transfer Device (IB 1001; Invitrogen, Grand Island, N.Y.). Membranes were blocked in 2% FBS PBST and probed for c-Src, p-c-Src, pErk1/2, Erk1/2, p STAT6, STAT6, pSTAT3, STAT3, pSTAT5, STAT5, Shp-1, and β-actin. Signal was detected with a ChemiDoc XRS+ system (BioRad; Hercules, Calif.).

[3] = test system: asthma-related parameters; experiment: Dose effect on asthma-related parameters in fungus-challenged mice; format: in vivo; settings: fungus-challenged mice
Experimental: as §1
(§4) Mice were challenged intranasally with a clinical isolate of 4×10^5 A. niger conidia every two days for a total of 8 challenges and treated with 50 μg of the indicated β-agonist, liposome vehicle (DLPC) and/or PM-242H (5 or 50 μg) intranasally as indicated and the allergic airway disease phenotype was determined according to previously described methods (Porter, P. et al. 2009).
(§5) Allergic airway disease was assessed as previously described (Porter, P. et al. 2009). Changes in respiratory system resistance (RRS) in response to intravenous acetylcholine challenge, bronchoalveolar lavage (BAL) fluid differential counts, and analysis of lung IL-4, IL-17A and IFN-γ producing cells by enzyme linked immunocell spot assay (ELISpot) were performed as previously described (Lee, S. H. et al. 2003; Polikepahad, S. et al. 2010).

allergic airway disease = experiment: Allergic lung disease reversal model (A. niger spores, treatment of established disease); format: in vivo, mice
Experimental: FIG. 17A, Mice are treated intranasally with 400,000 Aspergillus niger conidia every other day. After two weeks A. niger conidia are administered with either DLPC or DLPC/PM-43I. Airway hyperresponsiveness is measured at week 2, 3, and 4. FIG. 17B, Airway hyperrepsonsiveness induced by acetylcholine is revered by treatment with PM-43I.
In separate experiments wild type C57BL/6 mice were challenged with the spores of A. niger for two weeks after which the inventors began to give PM-242H intranasally at 50 micrograms per dose at the time of continued fungal challenge for an additional two weeks (FIG. 13A).
as §4, §5
Lungs were perfused of blood by cannulating the pulmonary artery and injecting ice cold PBS until lavage returning via the left atrium was clear. Lungs were then inflated via the trachea with 10% formalin at 25 cm water pressure and the tracheas were tied off prior to removal of the cardiopulmonary unit en bloc submerging in 10% formalin overnight. Fixed lungs were then divided into individual lobes that were then halved and embedded in paraffin. Lung sections were cut at 5 microns and stained with the periodic acid-Schiff (PAS) kit (395B; Sigma-Aldrich, St. Louis, Mo.).

Stat5 = experiment: Selectivity: Stat5 phosphorylation in EGF-stimulated MDA-MB-468 cells; format: cell-based; settings: serum starved MDA-MB-468 cells, 2 hr
Experimental: as §2

STAT6 [4] = experiment: STAT6 phosphorylation in vitro and in vivo (summary statement)
From the text: The synthesized PM-242H compound was advanced to in vivo studies. PM-242H was formulated as simple dilauroylphosphatidyl-choline liposomes and applied by intranasal administration. […] These findings with PM-242H in vivo and in vitro are entirely consistent with and explained by its ability to inhibit selectively STAT6.
as §3

Th1, Th2, Th17 cells = experiment: Th cell development: ovalbumin restimulation ELISpot of splenocytes from ovalbumin/alum immunized mice; format: in vivo
Experimental: The ability of PM-242H to inhibit the development of major T helper effector subsets (Th1, Th2, Th17 cells) at the time of allergen exposure was tested. For these experiments, mice were immunized with chicken egg ovalbumin precipitated in alum over two weeks and then challenged intranasally with the spores of the fungus Aspergillus niger (AN) together with alum-free ovalbumin. The inventors prepared single cell suspensions of splenocytes from these same mice and stimulated the T cells in these preparations with ovalbumin to determine the precise number of antigen-specific Th1, Th2 and Th17 cells that developed. […] In summary, treatment of mice with PM-242H suppressed the development of Th2 and Th17, but not Th1 cells. These findings are entirely consistent with the known properties of STAT6, but in addition indicate that STAT6 may be involved with the production of Th17 cells.
(§6) Mice were sensitized to ovalbumin precipitated in alum as described in FIG. 3 (Corry, D. B. et al. 1996). In brief, mice were vaccinated intraperitoneally weekly with ovalbumin/alum together with PM-242H (50 or 250 μg) or liposome vehicle (DLPC) for 2 consecutive weeks and allowed to rest for 1 week. Mice were then intranasally challenged with ovalbumin (1 mg/mL in PBS; A5503, Sigma-Aldrich) and 4×10^5A. niger conidia for 5 consecutive days after which the allergic airway disease phenotype was assessed. Randomization was not used to assign mice to specific treatment groups. Investigators were blind as to mouse genotype and treatment during data collection.
Splenocytes from the indicated challenge groups of naïve and sensitized mice were assessed for antigen-specific recall cytokine responses by ELISpot. In brief, spleens were removed post mortem, de-aggregated by pressing through 40 μm nylon mesh and the red blood cells were removed from resulting cell suspension by hypotonic lysis. The splenocytes were then washed twice and cultured in flat-bottom wells of 96-well microtiter plates that were pre-coated with capture antibodies to IL-4, interferon gamma (IFN-γ) and IL-17A. Splenocytes were added in duplicate cultures of 0.5×10^6 cells/well that were then diluted serially two-fold to 0.015×10^6 cells/well. Cells were cultured in the presence of media or whole ovalbumin (1 mg/mL) overnight and plates were developed as previously described (Kheradmand, F. et al. 2002).

allergic lung disease = experiment: Allergic lung disease induction model (ovalbumin/alum immunization, ovalbumin and A. niger challenge); format: in vivo, mice
Experimental: The same model as described in part E was used to determine the effect of PH-242H on the induction of allergic lung disease. Mice that were immunized with ovalbumin and challenged intranasally with ovalbumin and A. niger spores developed AHR as determined by a shift to the left of the acetylcholine (Ach) dose response curve as compared to PBS challenged animals. Enzyme linked immunocell spot (ELISpot) assays were then performed on whole lung homogenates, assaying for IL-4, gamma interferon (IFN-γ) and IL-17A-secreting cells.
as §6, §5

[5] = A. niger conidia, DLPC/PM-43I after two weeks
[6] = splenocytes restimulated with ovalbumin
[7] = ELISpot on whole lung homogenates
[8] = intranasal 50 micrograms per dose during established disease

## CC(=CC(=O)NC1CCCCN(CC(=O)N(C)c2ccccc2)C1=O)c1ccc(C(F)(F)P(=O)(OCOC(=O)C(C)(C)C)OCOC(=O)C(C)(C)C)cc1 (stereo not shown) [PM-43I]
[1]
  weight gain: reduction in weight gain
STAT6 [2]
  IC50: 1000 to 2500 nM
[3]
  maximally effective dose: 0.5 micrograms
Allergic airway disease; A. niger conidia every other day, DLPC/PM-43I after two weeks
  established allergic airway disease: reverses established allergic airway disease
Allergic airway disease; [5]
  immune cell recruitment: does not significantly affect
  lung immune response to A. niger infection: does in inhibit
Allergic airway disease; A. niger conidia, DLPC/PM-43I after two weeks, weeks 2, 3, 4
  airway hyperresponsiveness induced by acetylcholine: revered
Stat5
  cross reactivity with Stat5: significant cross reactivity

## CC(C)(C)C(=O)OCOP(=O)(OCOC(=O)C(C)(C)C)C(F)(F)c1ccc(/C=C/C(=O)NC(C(=O)N2CCCC2C(=O)N(c2ccccc2)c2ccc(-c3ccccc3)cc2)C(C)(C)C)cc1 (stereo not shown) [PM-242H]
STAT6 [4]
  STAT6 phosphorylation both in vitro and in vivo: inhibit
Th1, Th2, Th17 cells; FIGS. 11A-H legend
  effect on Th cells: inhibits Th cells
Th1, Th2, Th17 cells; [6]
  Th1 (IFN-γ)-secreting cells: unaffected
  development of Th2 (IL-4-producing) T cells: failed to develop
  development of Th17 (IL-17A-producing) T cells: failed to develop
Allergic lung disease; [7]
  IL-17A-secreting cells in lungs: significantly suppressed
  ratio between IL-4 and IFN-γ-secreting cells in lungs: significantly suppressed
Allergic lung disease; FIG. 12 legend
  development of allergic lung disease: blocks the development of allergic lung disease
Allergic airway disease; C57BL/6 mice, intranasal 50 micrograms per dose during established disease
  airway hyperresponsiveness: abrogation of airway hyperresponsiveness; also recorded: promotes recovery from airway hyperresponsiveness
Allergic airway disease; FIGS. 13A-F legend
  mucus production: inhibition of mucus production
Allergic airway disease; [8]
  goblet cell metaplasia (periodic acid-Schiff staining): reduction in goblet cell metaplasia
  lung and airway inflammation: did not, however, attenuate
  number of airway eosinophils: increased
  number of lung IL-17A-secreting cells: increased
